Measured values taken from ChEMBL document CHEMBL1140236, “Aminoalkoxybenzyl pyrrolidines as novel human urotensin-II receptor antagonists” (Bioorg Med Chem Lett, 2005).
pIC50, pKi: −log10 of the molar value.

Key:
[1] = target: T1, Urotensin-2 receptor (Homo sapiens, UniProt Q9UKP6); experiment: Binding affinity using [125I]hU-II radioligand binding assay in HEK293 cell membranes expressing human Urotensin 2 receptor
T1 sequence (Q9UKP6 whole entry): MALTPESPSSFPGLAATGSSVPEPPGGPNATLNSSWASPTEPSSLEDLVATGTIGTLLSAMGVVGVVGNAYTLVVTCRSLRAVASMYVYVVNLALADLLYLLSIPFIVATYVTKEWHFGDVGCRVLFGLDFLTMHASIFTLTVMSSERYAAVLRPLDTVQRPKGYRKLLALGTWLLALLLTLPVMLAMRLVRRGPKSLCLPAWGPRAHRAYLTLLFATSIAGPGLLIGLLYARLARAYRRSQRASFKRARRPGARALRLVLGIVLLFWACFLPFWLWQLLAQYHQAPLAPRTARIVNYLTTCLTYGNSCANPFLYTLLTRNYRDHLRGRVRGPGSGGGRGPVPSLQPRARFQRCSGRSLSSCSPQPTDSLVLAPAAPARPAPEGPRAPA

[2] = target: T2, Urotensin-2 receptor (Rattus norvegicus, UniProt P49684); experiment: Binding affinity for rat urotensin-2 receptor
T2 sequence (P49684 whole entry): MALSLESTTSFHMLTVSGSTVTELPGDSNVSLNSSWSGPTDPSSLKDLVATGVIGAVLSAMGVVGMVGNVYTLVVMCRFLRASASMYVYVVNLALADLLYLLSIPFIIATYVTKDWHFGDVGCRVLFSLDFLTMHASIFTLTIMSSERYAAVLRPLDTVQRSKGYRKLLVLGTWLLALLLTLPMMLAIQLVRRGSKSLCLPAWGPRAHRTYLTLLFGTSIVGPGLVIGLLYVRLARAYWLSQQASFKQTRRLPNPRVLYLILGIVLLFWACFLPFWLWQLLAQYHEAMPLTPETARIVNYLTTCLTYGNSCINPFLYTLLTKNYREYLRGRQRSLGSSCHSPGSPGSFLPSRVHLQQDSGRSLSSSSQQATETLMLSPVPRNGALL

[3] = target: T1, Urotensin-2 receptor; experiment: (§1) Inhibition of hU-II-mediated [Ca2+]i mobilization in HEK293 cells expressing human recombinant Urotensin 2 receptor in FLIPR assay; format: cell-based
[4] = target: T3, Urotensin-2 receptor (Macaca mulatta, UniProt Q8HYC3); experiment: Binding affinity for monkey urotensin-2 receptor
T3 sequence (Q8HYC3 whole entry): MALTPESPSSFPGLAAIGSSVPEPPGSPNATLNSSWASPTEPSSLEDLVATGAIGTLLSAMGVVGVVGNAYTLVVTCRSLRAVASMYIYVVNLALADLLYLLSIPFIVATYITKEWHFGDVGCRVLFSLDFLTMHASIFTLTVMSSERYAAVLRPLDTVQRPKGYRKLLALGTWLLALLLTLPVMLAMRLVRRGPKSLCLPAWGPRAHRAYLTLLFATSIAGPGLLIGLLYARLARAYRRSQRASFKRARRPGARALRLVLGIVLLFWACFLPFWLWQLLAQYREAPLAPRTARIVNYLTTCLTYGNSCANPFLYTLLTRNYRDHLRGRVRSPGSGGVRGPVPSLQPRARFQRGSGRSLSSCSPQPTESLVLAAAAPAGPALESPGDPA

[5] = target: T1, Urotensin-2 receptor; experiment: as §1; format: functional, cell-based

Row | Compound | pKi [1] | other results
1 | CC(C)C[C@H](NC(=O)Oc1ccccc1)C(=O)N[C@H]1CCN(Cc2ccc(OCCCN(C)C)cc2)C1 | 6.60 | –
2 | CN(C)CCCOc1ccc(CN2CC[C@H](NC(=O)CNC(=O)c3ccc(Cl)c(Cl)c3)C2)cc1 | < 5.00 | –
3 | CC(C)C[C@H](NC(=O)c1cc2ccccc2s1)C(=O)NC1CCN(Cc2ccc(OCCCN(C)C)cc2)C1 (single isomer, unassigned; 2b) | < 5.00 | –
4 | CC(=O)N[C@@H](CC(C)C)C(=O)N[C@H]1CCN(Cc2ccc(OCCCN(C)C)cc2)C1 | 5.60 | –
5 | CC(C)C[C@H](NC(=O)c1cccs1)C(=O)N[C@H]1CCN(Cc2ccc(OCCCN(C)C)cc2)C1 | 6.40 | –
6 | COc1ccc(C(=O)N[C@H]2CCN(Cc3ccc(OCCCN(C)C)cc3)C2)cc1OC | < 5.00 | –
7 | CC(C)C[C@H](NC(=O)Cc1ccc2c(c1)OCO2)C(=O)N[C@H]1CCN(Cc2ccc(OCCCN(C)C)cc2)C1 | 6.40 | –
8 | CN(C)CCCOc1ccc(CN2CC[C@H](NC(=O)[C@H](Cc3ccccc3)NC(=O)c3ccc(Cl)c(Cl)c3)C2)cc1 | 6.40 | –
9 | CC(C)[C@H](NC(=O)c1ccc(Cl)c(Cl)c1)C(=O)N[C@H]1CCN(Cc2ccc(OCCCN(C)C)cc2)C1 | 6.10 | –
10 | CC(C)C[C@H](NC(=O)c1ccc(Cl)c(Cl)c1)C(=O)N[C@H]1CCN(Cc2ccc(OCCCN(C)C)cc2)C1 | 6.90 | –
11 | CC(=O)N[C@H]1CCN(Cc2ccc(OCCCN(C)C)cc2)C1 | < 5.00 | –
12 | CN(C)CCCOc1ccc(CN2CC[C@H](NC(=O)[C@H](CCCCN)NC(=O)c3ccc(Cl)c(Cl)c3)C2)cc1 | < 5.00 | –
13 | CN(C)CCCOc1ccc(CN2CC[C@H](NC(=O)[C@H](CCC(=O)O)NC(=O)c3ccc(Cl)c(Cl)c3)C2)cc1 | < 5.00 | –
14 | CC(C)C[C@H](NC(=O)c1ccc(Br)cc1)C(=O)N[C@H]1CCN(Cc2ccc(OCCCN(C)C)cc2)C1 | 6.70 | –
15 | CC(C)C[C@H](NC(=O)c1cc2ccccc2o1)C(=O)NC1CCN(Cc2ccc(OCCCN(C)C)cc2)C1 (single isomer, unassigned; 2c) | 6.80 | –
16 | CC(C)C[C@H](NC(=O)c1ccc2c(c1)OCO2)C(=O)N[C@H]1CCN(Cc2ccc(OCCCN(C)C)cc2)C1 | 6.30 | –
17 | CC(C)C[C@H](NC(=O)Nc1ccccc1)C(=O)N[C@H]1CCN(Cc2ccc(OCCCN(C)C)cc2)C1 | 6.00 | –
18 | CC(C)C[C@H](NC(=O)c1ccncc1)C(=O)N[C@H]1CCN(Cc2ccc(OCCCN(C)C)cc2)C1 | 5.70 | –
19 | CC(C)C[C@H](NC(=O)c1cc2ccccc2s1)C(=O)NC1CCN(Cc2ccc(OCCCN(C)C)cc2)C1 (single isomer, unassigned; 2a) | 6.90 | pIC50 [5]: 6.20
20 | CC(C)C[C@H](NC(=O)c1ccco1)C(=O)N[C@H]1CCN(Cc2ccc(OCCCN(C)C)cc2)C1 | 6.20 | –
21 | CC(C)C[C@H](NC(=O)c1ccc2ccccc2n1)C(=O)N[C@H]1CCN(Cc2ccc(OCCCN(C)C)cc2)C1 | 6.20 | –
22 | CC(C)C[C@H](NC(=O)c1cc2ccccc2[nH]1)C(=O)N[C@H]1CCN(Cc2ccc(OCCCN(C)C)cc2)C1 | 6.30 | –
23 | CC(C)C[C@@H](NC(=O)c1cc2ccccc2o1)C(=O)NC1CCN(Cc2ccc(OCCCN(C)C)cc2)C1 (single isomer, unassigned) | 5.50 | –
24 | CC(C)C[C@H](NC(=O)c1cc2ccccc2o1)C(=O)NC1CCN(Cc2ccc(OCCCN(C)C)cc2)C1 (single isomer, unassigned; 2d) | < 5.00 | –

The next lines start with results.

Row | pKi [1] | Compound | other results
25 | 5.60 | CN(C)CCCOc1ccc(CN2CC[C@H](NC(=O)c3ccc4c(c3)OCO4)C2)cc1 | –
26 | 6.20 | Cc1cc(C(=O)N[C@H]2CCN(Cc3ccc(OCCCN(C)C)cc3)C2)ccc1Cl | –
27 | 5.60 | CN(C)CCCOc1ccc(CN2CC[C@H](NC(=O)c3ccccc3)C2)cc1 | –
28 | 6.30 | CC(C)C[C@H](NC(=O)c1ccccc1)C(=O)N[C@H]1CCN(Cc2ccc(OCCCN(C)C)cc2)C1 | –
29 | 6.50 | CN(C)CCCOc1ccc(CN2CC[C@H](NC(=O)c3ccc(Br)cc3)C2)cc1 | –
30 | 5.60 | CN(C)CCCOc1ccc(CN2CC[C@H](NC(=O)c3cc4ccccc4o3)C2)cc1 | –
31 | < 5.00 | CN(C)CCCOc1ccc(CN2CC[C@H](NC(=O)c3cccs3)C2)cc1 | –
32 | < 5.00 | CN(C)CCCOc1ccc(CN2CC[C@H](NC(=O)c3ccc(C#N)cc3)C2)cc1 | –
33 | < 5.00 | CN(C)CCCOc1ccc(CN2CC[C@H](NC(=O)c3ccncc3)C2)cc1 | –
34 | < 5.00 | Cc1ccc(C(=O)N[C@H]2CCN(Cc3ccc(OCCCN(C)C)cc3)C2)cc1C | –
35 | 6.70 | CN(C)CCCOc1ccc(CN2CC[C@H](NC(=O)c3ccc(Cl)c(Cl)c3)C2)cc1 | pKi [2]: 5.50; pIC50 [3]: 6.80; pKi [4]: 6.60
36 | 6.20 | Cc1cc(C(=O)N[C@H]2CCN(Cc3ccc(OCCCN(C)C)cc3)C2)ccc1Br | –
37 | 5.70 | CN(C)CCCOc1ccc(CN2CC[C@H](NC(=O)c3cc(Cl)cc(Cl)c3)C2)cc1 | –
38 | < 5.00 | CN(C)CCCOc1ccc(CN2CC[C@H](NC(=O)c3ccc4ccccc4c3)C2)cc1 | –
39 | < 5.00 | CN(C)CCCOc1ccc(CN2CC[C@H](NC(=O)c3ccc(-c4ccccc4)cc3)C2)cc1 | –
40 | < 5.00 | CN(C)CCCOc1ccc(CN2CC[C@H](NC(=O)c3ccco3)C2)cc1 | –
41 | < 5.00 | CN(C)CCCOc1ccc(CN2CC[C@H](NC(=O)c3ccc(C(F)(F)F)cc3)C2)cc1 | –
